Experimental data published in patent US20060251597A1, “ANTI-ODOR COMPOSITIONS AND THERAPEUTIC USE” (priority 2005, published 2006).
Structures can show the parent of a compound that is named as a salt. Where two headings read alike, the source gives them in different places.

Assays:
[1] = anti-odor test, three-member panel by sniffing: sulfone or organic amine in composition containing water or alcohol (solution, oil-in-water emulsion)
Procedure: (§1) Initially, a malodor compound such as about 5% by weight was prepared in water solution or in oil-in-water emulsion. A sulfone or organic amine of the present embodiments was added at various concentrations for example, ranging from about 2%, 1%, 0.5% and 0.1% to the formulations containing the malodor substance. The composition containing the malodor substance without a sulfone or organic amine was used as the control.
Methenamine (MW 140) 7.0 g was dissolved in water, and the total volume was 100 ml. This solution contained methenamine 0.5M or 70 mg per ml methenamine.
Piperazine (MW 86) 4.3 g was dissolved in water, and the total volume was 100 ml. This solution contained piperazine 0.5M, or 43 mg per ml piperazine.

[2] = panel sniff tests of solvents, ingredients and amines against thiol malodor (general statements); conditions: solvent or ingredient, based on the panel tests
Procedure: as §1

[3] = 10% N-acetyl-L-cysteine and 5% anti-odor ingredient in water
[4] = water, 4% N-acetyl-L-cysteine and 1% organic amine (cytidine solution pH 4.3)
[5] = water, N-acetyl-L-cysteine 0.25 M and chlorhexidine 0.1 M
[6] = water, N-acetyl-L-cysteine 4% and piperazine 0.43%, pH 3.4
[7] = water, N-acetyl-L-cysteine 4% and piperazine 1.1%, pH 5.6
[8] = water, N-acetyl-L-cysteine 4% and trizma base 0.61%, pH 3.0
[9] = water, N-acetyl-L-cysteine 4% and trizma base 1.5%, pH 3.5

## O=S(=O)(CCO)CCO [2,2-sulfonyldiethanol]
[1]
  malodor as judged by panel: did not have any malodor

## Cc1cc(S(=O)(=O)c2ccc(O)c(C)c2)ccc1O [4,4′-sulfonyl-bis(2-methylphenol)]
[1]; [3]
  malodor as judged by panel: did not have any malodor

## COC(=O)c1ccc(S(=O)(=O)c2ccc(C(=O)OC)cc2)cc1 [4,4′-sulfonyl-bis(methylbenzoate)]
[1]; [3]
  malodor as judged by panel: did not have any malodor

## O=S(=O)(c1ccc(O)cc1)c1ccc(O)cc1 [4,4′-sulfonyldiphenol]
[1]
  malodor as judged by panel: did not have any malodor

## CC(=O)N[C@@H](CS)C(=O)O [N-Acetyl-L-cysteine, reference compound]
[1]; cream (oil-in-water emulsion), 10% N-acetyl-L-cysteine, no anti-odor ingredient (control)
  malodor as judged by panel: very unpleasant malodor

## CCCCO [N-butyl alcohol]
[2]
  prevention of malodor produced by a thiol or similar malodor compounds: effectively prevent malodor

## Nc1ncnc2nc[nH]c12 [adenine]
[1]; [4]
  effective in preventing malodor: 50%
  malodor as judged by panel: slight malodor ((b) slight malodor (50% effective))

## CCCCOCCOCCO [butoxydiglycol]
[2]
  prevention of malodor produced by a thiol or similar malodor compounds: effectively prevent malodor

## CCCCOCC(C)O (centres unmarked) [butoxypropanol]
[2]
  prevention of malodor produced by a thiol or similar malodor compounds: effectively prevent malodor

## CCCCOC(C)=O [butyl acetate]
[2]
  prevention of malodor produced by a thiol or similar malodor compounds: effectively prevent malodor

## CCCCOC(=O)C(C)O (centres unmarked) [butyl lactate]
[2]
  prevention of malodor produced by a thiol or similar malodor compounds: effectively prevent malodor

## CCCCCCC(CO)CCCC (centres unmarked) [butyloctanol]
[2]
  prevention of malodor produced by a thiol or similar malodor compounds: effectively prevent malodor

## [H]/N=C(\N/C(=N/[H])NCCCCCCNC(=N)NC(=N)Nc1ccc(Cl)cc1)Nc1ccc(Cl)cc1 [chlorhexidine base, chlorhexidine, reference compound]
[1]; [5]
  effective in preventing odor: 50%
  malodor as judged by panel: slight malodor ((b) slight malodor (50% effective))

## C1CCCCC1 [cyclohexane]
[2]
  prevention of malodor produced by a thiol or similar malodor compounds: effectively prevent malodor

## Nc1cc[nH]c(=O)n1 [cytosine]
[1]; [4]
  effective in preventing malodor: 50%
  malodor as judged by panel: slight malodor ((b) slight malodor (50% effective))

## CCCCOC(=O)CCCCC(=O)OCCCC [dibutyl adipate]
[2]
  prevention of malodor produced by a thiol or similar malodor compounds: effectively prevent malodor

## CC(C)COC(=O)CCCCC(=O)OCC(C)C [diisobutyl adipate]
[2]
  prevention of malodor produced by a thiol or similar malodor compounds: effectively prevent malodor

## CC(C)OC(=O)CCCCC(=O)OC(C)C [diisopropyl adipate]
[2]
  prevention of malodor produced by a thiol or similar malodor compounds: effectively prevent malodor

## CC(C)OC(=O)C(=O)OC(C)C [diisopropyl oxalate]
[2]
  prevention of malodor produced by a thiol or similar malodor compounds: effectively prevent malodor

## CC(C)OC(=O)CCCCCCCCC(=O)OC(C)C [diisopropyl sebacate]
[2]
  prevention of malodor produced by a thiol or similar malodor compounds: effectively prevent malodor

## COCCOCCOC [dimethoxydiglycol]
[2]
  prevention of malodor produced by a thiol or similar malodor compounds: effectively prevent malodor

## COC(=O)CCCCC(=O)OC [dimethyl adipate]
[2]
  prevention of malodor produced by a thiol or similar malodor compounds: effectively prevent malodor

## CS(C)(=O)=O [dimethyl sulfone]
[2]
  prevention of malodor produced by a thiol or similar malodor compounds: effectively prevent malodor
[1]; [3]
  malodor as judged by panel: did not have any malodor
[1]; 10% N-acetyl-L-cysteine and 10% dimethyl sulfone in ethanol
  malodor as judged by panel: very strong malodor
[1]; 10% N-acetyl-L-cysteine and 10% sulfone in water
  malodor as judged by panel: did not have any malodor

## CCCCCCCCOC(=O)CCCCC(=O)OCCCCCCCC [dioctyl adipate]
[2]
  prevention of malodor produced by a thiol or similar malodor compounds: effectively prevent malodor

## CCCCCCCCOC(=O)CCCCCCCCC(=O)OCCCCCCCC [dioctyl sebacate]
[2]
  prevention of malodor produced by a thiol or similar malodor compounds: effectively prevent malodor

## O=S(=O)(c1ccccc1)c1ccccc1 [diphenylsulfone]
[1]; [3]
  malodor as judged by panel: did not have any malodor

## CCCOC(=O)CCCCC(=O)OCCC [dipropyl adipate]
[2]
  prevention of malodor produced by a thiol or similar malodor compounds: effectively prevent malodor

## CCOCCO [ethoxyethanol]
[2]
  prevention of malodor produced by a thiol or similar malodor compounds: effectively prevent malodor

## CCOC(=O)CC(C)=O [ethyl acetoacetate]
[2]
  prevention of malodor produced by a thiol or similar malodor compounds: effectively prevent malodor
[1]; [3]
  malodor as judged by panel: did not have any malodor

## CCOC(=O)C(C)O (centres unmarked) [ethyl lactate]
[2]
  prevention of malodor produced by a thiol or similar malodor compounds: effectively prevent malodor

## Nc1nc2nc[nH]c2c(=O)[nH]1 [guanine]
[1]; [4]
  effective in preventing malodor: 50%
  malodor as judged by panel: slight malodor ((b) slight malodor (50% effective))

## Nc1nc2c(ncn2[C@@H]2O[C@H](CO)[C@@H](O)[C@H]2O)c(=O)[nH]1 [guanosine]
[1]; [4]
  effective in preventing malodor: 50%
  malodor as judged by panel: slight malodor ((b) slight malodor (50% effective))

## CC(C)CC(C)(C)C [isooctane]
[2]
  prevention of malodor produced by a thiol or similar malodor compounds: effectively prevent malodor

## CC(=O)N1CCC[C@H]1C(=O)OC(C)C [isopropyl N-acetyl-prolinate]
[2]
  prevention of malodor produced by a thiol or similar malodor compounds: effectively prevent malodor

## CC(=O)OC(C)C [isopropyl acetate]
[2]
  prevention of malodor produced by a thiol or similar malodor compounds: effectively prevent malodor

## CCCCCCCCCCCCCC(=O)OC(C)C [isopropyl myristate]
[2]
  prevention of malodor produced by a thiol or similar malodor compounds: effectively prevent malodor

## C1N2CN3CN1CN(C2)C3 [methenamine, reference compound]
[1]; N-acetyl-L-cysteine 2% in oil-in-water emulsion
  concentration that can completely eliminate the malodor: ≥ 0.1%
[1]; cream (oil-in-water emulsion), 10% N-acetyl-L-cysteine and 3% methenamine
  malodor as judged by panel: did not have any malodor
[1]; water, N-acetyl-L-cysteine 4% and methenamine 0.7%, pH 3.9
  malodor as judged by panel: did not have any malodor
[1]; water, N-acetyl-L-cysteine 4% and methenamine 1.8%, pH 5.2
  malodor as judged by panel: did not have any malodor

## CCCCCCCCCCCCCCCCCC [octadecane]
[2]
  prevention of malodor produced by a thiol or similar malodor compounds: effectively prevent malodor

## CCCCCCCCO [octanol]
[2]
  prevention of malodor produced by a thiol or similar malodor compounds: effectively prevent malodor

## CCCCCCCCOC(=O)c1ccccc1 [octyl benzoate]
[2]
  prevention of malodor produced by a thiol or similar malodor compounds: effectively prevent malodor

## CCCCCCCC/C=C\CCCCCCCCO [oleyl alcohol]
[2]
  prevention of malodor produced by a thiol or similar malodor compounds: effectively prevent malodor

## CCCCCCCC/C=C\CCCCCCCCOC(=O)C(C)O (centres unmarked) [oleyl lactate]
[2]
  prevention of malodor produced by a thiol or similar malodor compounds: effectively prevent malodor

## C1CNCCN1 [piperazine, reference compound]
[1]; [6]
  effective in preventing odor: 50%
  malodor as judged by panel: slight malodor ((b) slight malodor (50% effective))
[1]; [7]
  effective in preventing odor: 50%
  malodor as judged by panel: slight malodor ((b) slight malodor (50% effective))

## CC(C)OC(=O)CC(O)(CC(=O)OC(C)C)C(=O)OC(C)C [triisopropyl citrate]
[2]
  prevention of malodor produced by a thiol or similar malodor compounds: effectively prevent malodor

## cycloethoxymethicone
[2]
  prevention of malodor produced by a thiol or similar malodor compounds: effectively prevent malodor

## cyclomethicone
[2]
  prevention of malodor produced by a thiol or similar malodor compounds: effectively prevent malodor

## tris(hydroxymethyl)aminomethane [trizma base]
[1]; [8]
  effective in preventing odor: 50%
  malodor as judged by panel: slight malodor ((b) slight malodor (50% effective))
[1]; [9]
  effective in preventing odor: 50%
  malodor as judged by panel: slight malodor ((b) slight malodor (50% effective))
